We go through four compounds from patent US11696956B2, “Bicyclic peptide ligands specific for EphA2” (BicycleTx Limited, priority 2017, dated 2023).

In general, T/C refers to the ratio of treated to control.

One data set deals with PC-3 xenograft. Put plainly: Study 8: in vivo efficacy, PC-3 xenograft. The note with it: qw.
In another data set the target is T1, Mouse EphA2 (Mus musculus, UniProt Q03145).
T1 construct: EphA2 (Ecto); Mouse; C-; Sino; 50586-M08H; polyHis (C); purchased Sino Biological 50586-M08H
Description: FP competition binding (Study 2, alternative protocol). The note with it: summary of Table 10.

The next data set concerns the target T2, rat EphA2 (Rattus norvegicus, UniProt D3ZBN3).
T2 construct: Rat; C-; In-house; N/A; polyHis (C); made in house
Described as above. The note with it: summary of Table 10.

The next data set addresses T3, Human EphA2 (Homo sapiens, UniProt P29317).
T3 construct: EphA2 (Ecto); Human; C-terminal; R&D systems; 3035-A2; polyHis (C); purchased R&D systems 3035-A2
The description is as above. The note with it: summary of Table 10.

T1 sequence (Q03145 26-538 limits assumed): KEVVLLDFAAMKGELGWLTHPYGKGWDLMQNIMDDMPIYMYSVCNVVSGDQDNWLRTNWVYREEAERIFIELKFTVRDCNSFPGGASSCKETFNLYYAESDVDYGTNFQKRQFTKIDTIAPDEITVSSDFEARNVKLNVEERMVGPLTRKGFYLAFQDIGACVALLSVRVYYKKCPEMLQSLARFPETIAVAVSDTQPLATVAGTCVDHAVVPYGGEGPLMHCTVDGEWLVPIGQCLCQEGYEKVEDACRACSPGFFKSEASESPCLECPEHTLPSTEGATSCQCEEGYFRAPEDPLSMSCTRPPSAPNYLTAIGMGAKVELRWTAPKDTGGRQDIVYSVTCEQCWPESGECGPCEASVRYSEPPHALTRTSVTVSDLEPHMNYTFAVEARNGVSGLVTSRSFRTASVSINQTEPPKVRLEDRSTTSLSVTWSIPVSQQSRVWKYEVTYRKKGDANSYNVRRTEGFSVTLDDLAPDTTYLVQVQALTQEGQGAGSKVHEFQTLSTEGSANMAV
T2 sequence (D3ZBN3 26-205): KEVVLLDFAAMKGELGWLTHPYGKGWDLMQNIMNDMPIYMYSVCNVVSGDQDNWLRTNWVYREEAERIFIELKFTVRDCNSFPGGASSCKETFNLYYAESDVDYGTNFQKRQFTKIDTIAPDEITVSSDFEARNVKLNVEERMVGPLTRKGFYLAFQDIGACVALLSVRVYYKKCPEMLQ
T3 sequence (P29317 24-537 limits assumed): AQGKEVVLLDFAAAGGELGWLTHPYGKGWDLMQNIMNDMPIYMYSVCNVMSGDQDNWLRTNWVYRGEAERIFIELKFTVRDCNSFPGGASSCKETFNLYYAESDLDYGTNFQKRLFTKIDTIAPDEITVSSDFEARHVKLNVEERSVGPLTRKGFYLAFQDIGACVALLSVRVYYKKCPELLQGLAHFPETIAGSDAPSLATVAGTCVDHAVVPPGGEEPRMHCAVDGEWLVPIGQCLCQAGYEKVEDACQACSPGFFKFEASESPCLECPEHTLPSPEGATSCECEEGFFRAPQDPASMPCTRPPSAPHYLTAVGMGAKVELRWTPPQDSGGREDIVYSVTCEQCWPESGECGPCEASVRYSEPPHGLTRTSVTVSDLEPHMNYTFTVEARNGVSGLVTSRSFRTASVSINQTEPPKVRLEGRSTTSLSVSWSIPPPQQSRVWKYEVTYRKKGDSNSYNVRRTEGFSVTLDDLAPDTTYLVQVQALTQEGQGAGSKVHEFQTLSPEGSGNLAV
Description for PC-3 xenograft: The major endpoint was to see if the tumor growth could be delayed or mice could be cured. Tumor volume was measured three times weekly in two dimensions using a caliper, and the volume was expressed in mm^3 using the formula: V=0.5 a×b^2 where a and b are the long and short diameters of the tumor, respectively. The tumor size was then used for calculations of T/C value. The T/C value (in percent) is an indication of antitumor effectiveness; T and C are the mean volumes of the treated and control groups, respectively, on a given day. TGI was calculated for each group using the formula: TGI (%)=[1−(Ti−T0)/(Vi−V0)]×100; Ti is the average tumor volume of a treatment group on a given day, T0 is the average tumor volume of the treatment group on the day of treatment start, Vi is the average tumor volume of the vehicle control group on the same day with Ti, and V0 is the average tumor volume of the vehicle group on the day of treatment start.
A one-way ANOVA was performed to compare tumor volume among groups, and when a significant F-statistics (a ratio of treatment variance to the error variance) was obtained, comparisons between groups were carried out with Games-Howell test. […] P<0.05 was considered to be statistically significant.
The tumor cells were maintained in F-12K medium supplemented with 10% heat inactivated fetal bovine serum at 37° C. in an atmosphere of 5% CO2 in air. The tumor cells were routinely subcultured twice weekly. The cells growing in an exponential growth phase were harvested and counted for tumor inoculation.
52 animals were randomized when the average tumor volume reached 454 mm^3.
Tumor growth inhibition rate for test articles in the PC-3 xenograft model was calculated based on tumor volume measurements at day 20 after the start of the treatment.

Take `CC(=O)O[C@@]12CO[C@@H]1C[C@H](O)[C@@]1(C)C(=O)[C@H](O)C3=C(C)[C@@H](OC(=O)[C@H](O)[C@@H](NC(=O)OC(C)(C)C)c4ccccc4)C[C@@](O)([C@@H](OC(=O)c4ccccc4)[C@H]21)C3(C)C` [Docetaxel]: in the data set on PC-3 xenograft (15 mg/kg), the “animal body weight loss” value is “severe animal body weight loss”. In addition, the TGI in the data set with PC-3 xenograft (15 mg/kg, day 20) is listed as 101.8%; with PC-3 xenograft (15 mpk, day 20) it was 101.8%. The “TV (tumor volume)” value with PC-3 xenograft (15 mg/kg, day 20) worked out at 419 mm^3. For the same compound, the Mean tumor volume is on record as 453 ± 62 mm^3 in the data set with PC-3 xenograft (15 mpk, day 0); 584 ± 72 mm^3 with PC-3 xenograft (15 mpk, day 2); 632 ± 56 mm^3 in the data set on PC-3 xenograft (15 mpk, day 4); 636 ± 48 mm^3 with PC-3 xenograft (15 mpk, day 6); 568 ± 50 mm^3 in the data set with PC-3 xenograft (15 mpk, day 8); 408 ± 31 mm^3 with PC-3 xenograft (15 mpk, day 10). Also, the Mean tumor volume is 374 ± 26 mm^3 with PC-3 xenograft (15 mpk, day 13); 388 ± 36 mm^3 with PC-3 xenograft (15 mpk, day 15); 361 ± 25 mm^3 with PC-3 xenograft (15 mpk, day 17); 419 ± 31 mm^3 in the data set with PC-3 xenograft (15 mpk, day 20). In the data set with PC-3 xenograft (15 mpk, day 20), the T/C is given as 17.7%. In addition, the “Tumor Volume” value in the data set on PC-3 xenograft (15 mpk, day 20, Mean ± SEM) is recorded as 419 ± 31 mm^3.

Take “(β-Ala)-Sar10-A(HArg)DC(HyP)LVNPLCLHP(D-Asp)W(HArg)C [Compound 66]”: at Mouse EphA2, the “binding to mouse EphA2” value is listed as “bind with high affinity”. For the same compound, the “binding to rat EphA2” value at rat EphA2 is given as “bind with high affinity”.

For the compound “(β-Ala)-Sar10-A(HArg)DCPLVNPLCLHPGVVTC [Compound 67]”, the “binding to mouse EphA2” value on Mouse EphA2 is listed as “bind with high affinity”. At rat EphA2, the “binding to rat EphA2” value is given as “bind with high affinity”.

As for “Ac-CPLVNPLCLHPGVVTCLHG-Sar6-(D-K) [Compound 77]”, the “binding to mouse EphA2” value on Mouse EphA2 is “binds”. In addition, the “binding to human EphA2” value on Human EphA2 is “binds”.
